# Measurements published in publication PMC8421406, “C9orf72-derived arginine-rich poly-dipeptides impede phase modifiers” (Nature Communications, 2021).
# Where no end group is shown, it is not given here. HA = HA epitope tag
# Legend:
# Format in all cases: biochemical
# [1] = test system: GFP:FUS-LC:NLS / mCh:FUS-LC hydrogel; assay: Hydrogel binding assay, GFP:FUS-LC:NLS on mCh:FUS-LC hydrogel; settings: Kapβ2 0.1-1.0 µM; PR20 with 1.0 µM Kapβ2
# Description: The experiment was independently repeated three times with similar results. Here, 10 μm scale bars are shown in the image. e Graphical description of hydrogel binding assay. Hydrogels of mCh:LC-domain accumulate GFP:LC-domain as it co-polymerizes. f Hydrogel binding assay for FUS-LC in the absence and presence of Kapβ2. mCh:FUS-LC (lower images) were incubated with 1.0 µM of GFP (left panel) or 1.0 µM of GFP:FUS-LC:NLS (right panel) in the presence of different concentrations of Kapβ2 (left to right: 0.1, 0.3, and 1.0 µM). g Quantitative analysis of Fig. 1f. Relative intensity of GFP signals is shown as the mean of three independent experiments ± SD, analyzed by one-way ANOVA followed by Dunnett’s multiple comparison test (**P < 0.01, ***P < 0.001). h Hydrogel binding assay for FUS-LC in the absence and presence of Kapβ2 and/or PR20. Hydrogel droplets of mCh:FUS-LC (lower images) were incubated with 1.0 µM of GFP (left panel) or GFP:FUS-LC:NLS (right panel). GFP:FUS-LC:NLS containing Kapβ2 (1.0 µM) was challenged for homotypic polymer extension in the absence or presence of different concentration of PR20. i Quantitative analysis of Fig. 1h. Relative intensity of GFP signals is shown as the mean of three independent experiments ± SD, analyzed by one-way ANOVA followed by Dunnett’s multiple comparison test (**P < 0.01). Source data are provided as a Source Data file. […]
# [2] = test system: MBP:FUS (full-length FUS droplets) / Kapβ2; assay: Turbidity assay of FUS droplet formation (OD 395 nm); settings: equimolar poly-dipeptide and Kapβ2 (8 μM)
# [3] = test system: GFP:cNLS:TDP43-LC / mCh:TDP43-LC hydrogel; assay: Hydrogel binding assay, TDP43-LC with Impα/β1; settings: 1.0 µM GFP:cNLS:TDP43-LC, Impα/β1 1.0 µM/1.0 µM, PR20 1.0 µM
# From the text: Expression plasmids for recombinant proteins (GFP/mCherry fusion LC-domain of FUS (residue 2–214, GFP/mCh:FUS-LC) and GFP/mCherry fusion LC-domain of hnRNPA2 (residue 181–341, GFP/mCh:hnRNPA2-LC)) were obtained from the Steven L. McKnight Laboratory. Expression plasmid for GFP:FUS-LC fusion NLS (residue 501–526, GFP:FUS-LC:NLS), mCh fusion LC-domain of TDP43 (residue 262–414, mCh:TDP43-LC), and GFP-tagged cNLS (residue 78–99) fusion TDP43-LC (GFP:cNLS:TDP43-LC) were constructed using In-Fusion HD Cloning Kit (Takara Bio, Inc.). GFP/mCh:FUS-LC, GFP:FUS-LC:NLS, and GFP/mCh:hnRNPA2-LC were expressed in E. coli BL21(DE3) cells with 0.5 mM IPTG at 20 °C overnight and purified by Ni-NTA Agarose (FUJIFILM Wako Pure Chemical Corporation), as described in a previous study. GFP:cNLS:TDP43-LC were expressed with 1.0 mM IPTG at 37 °C for 3 h and mCh:TDP43-LC were expressed with 0.5 mM IPTG at 16 °C overnight. GFP:cNLS:TDP43-LC and mCh:TDP43-LC were purified by Ni-NTA as described in a previous study[48] with some modifications. […] Relative intensity of GFP signals across the hydrogel droplets were measured in triplicate by using the profile plot mode in ImageJ. […]
substance,measurement,setting,value
"PR20: twenty repeats of proline:arginine with an HA epitope tag at the C terminus, synthesized by SCRUM, Inc. (PRPRPRPRPRPRPRPRPRPRPRPRPRPRPRPRPRPRPRPR-{HA})",Effect on hydrogel binding of GFP:FUS-LC:NLS,[1],inhibited the ability of Kapβ2 from blocking the hydrogel binding of GFP:FUS-LC:NLS
same,Inhibition of the ability of Kapβ2 to melt FUS droplets (turbidity),[2],inhibited the ability of Kapβ2
same,Effect on ability of Impα/β1 to modify phase transition of TDP43-LC,[3],inhibited the ability of other NIRs Impα/β1 in modifying the phase transition of LC-domain of TDP43
